{
  "source": "patent US9399145B2",
  "about": "“Nanoscale neuromodulating platform for retina neuron activation apparatus and method” (The Board of Trustees of the University of Illinois, priority 2005, dated 2016)",
  "key": {"[1]": {"tested_on": "GABAARs of retinal ganglion cells", "test": "Whole-cell patch clamp of isolated retinal ganglion cells", "type": "cell-based, rat", "settings": "for peak amplitude of direct response relative to response to 200 μM GABA: alone", "experimental": "To test whether native neuronal GABAARs respond to MPC088, retinal ganglion cells (RGCs), a cell type known to abundantly express GABAARs (Ishida et al. (1988); Fischer et al. (1998); Wässle et al. (1998); Rotolo et al. (2003)), were examined. […] The cis-dominant preparation was obtained by pre-treating trans-dominant MPC088 with UV light for 5 min.\nInset: Aggregate data for direct activation by MPC088.\nExperiments were conducted on enzymatically dissociated ganglion cells obtained from adult Sprague-Dawley rats (male and female, 6-16 weeks of age) (Charles River Laboratories, Wilmington, Mass.). Procedures for euthanasia, isolation of the retina, and the dissociation of retinal cells were as described previously (Ramsey et al. (2007) except that the period of retinal cell dissociation was shortened from 40 min to 20 min. Isolated ganglion cells were identified on the basis of their morphological appearance and the presence of a large voltage-gated sodium current. Whole-cell patch-clamp techniques similar to those described (Ramsey et al. (2007)) were used to record membrane current responses to test agents. The patch pipette with a resistance of 8-12 MΩ was pulled in two stages using a micro-electrode puller (Model PP830, Narishige Group, Tokyo, Japan). The pipette was filled with an intracellular solution containing 95 mM CsCH3SO3, 20 mM TEA-Cl, 10 mM glutamic acid, 1 mM BAPTA, 10 mM HEPES, 8 mM phosphocreatine di(tris), 1 mM MgATP and 0.2 mM Na2GTP; pH adjusted to 7.2 with CsOH. Cells were clamped at 0 mV (Axopatch 200B amplifier; Axon Instruments), and experimental runs were controlled by pCLAMP system software (Axon Instruments). Electrophysiological data were obtained in response to test compounds dissolved in physiological saline (Ringer solution) that consisted of 135 mM NaCl, 5 mM KCl, 2 mM CaCl2, 2 mM MgCl2, 10 mM glucose, and 5 mM HEPES, pH 7.4. Supplementation of aqueous test solutions with MPC088 was carried out by adding an aliquot of a stock solution containing the compound dissolved in dimethyl sulfoxide (DMSO). In all experiments, the amount of carrier DMSO present in the applied test solution was <1% (v/v). Test solutions were delivered from separate reservoirs by a multi-channel perfusion system. The same UV-LED used in the oocyte experiments was used for UV illumination of MPC088-supplemented test solutions. For preparation of cis-dominant MPC088, the test solution of initially trans-dominant compound underwent a 5-min UV illumination prior to its placement in the perfusion reservoir. All preparative procedures were performed in the dark, and the reservoirs and perfusion lines were light-protected with aluminum foil. As in the oocyte experiments, data were analyzed with Clampfit and plotted with Origin. Unless otherwise stated, numerical data from replicate experiments are presented as mean±SD, and all statistical analyses of data obtained from oocytes and from retinal ganglion cells employed a two-sample t-test."}, "[2]": {"tested_on": "GABAARs of isolated bipolar cells of rat retina", "test": "Whole-cell recording of isolated retinal bipolar cells", "type": "cell-based", "description": "Data obtained with trans-MPC088 indicated substantial GABAAR potentiating activity by trans-MPC088 (FIG. 61)."}},
  "data": [
    {"smiles": "CC(C)c1cc(CCCC(=O)NCc2ccc(/N=N/c3ccc(C(=O)NCCN)cc3)cc2)cc(C(C)C)c1O", "note": "[MPC088, (E)-N-(2-Aminoethyl)-4-((4-((4-(4-hydroxy-3,5-diisopropylphenyl)butanamido)methyl)phenyl)diazenyl)benzamide]", "values": [
      {"measurement": "potentiation of the response elicited by 2 μM GABA", "setting": "[1]; 10 μM trans-dominant", "result": "approximately 5 fold"},
      {"measurement": "peak amplitude of direct response relative to response to 200 μM GABA", "setting": "[1]; 30 μM trans-dominant", "result": 5, "unit": "%"},
      {"measurement": "peak amplitude of direct response relative to response to 200 μM GABA", "setting": "[1]; 60 μM trans-dominant", "result": "43±9", "unit": "%"},
      {"measurement": "reduction of agonist activity by UV pre-treatment", "setting": "[1]; 60 μM, UV pre-treated (cis-dominant) vs trans-dominant", "result": "88±6", "unit": "%"},
      {"measurement": "potentiating factor (peak amplitude relative to the 10 μM GABA response)", "setting": "[2]; 5 μM with 10 μM GABA and 100 μM TPMPA", "result": "1.73±0.01"},
      {"measurement": "potentiating factor (peak amplitude relative to the 10 μM GABA response)", "setting": "[2]; 15 μM with 10 μM GABA and 100 μM TPMPA", "result": "3.26±0.42"}
    ]}
  ]
}
